This is an account of results in patent US6660891B2, “Methods for the production of D-chiro-inositol and the use of D-chiro inositol obtained therefrom” (Insmed Incorporated, priority 2000, dated 2003).

Series [1] has as its system ovulation in women afflicted with polycystic ovary syndrome. To be noted: 44 women with PCOS; DCI 1200 mg/day for 6-8 weeks; placebo 27%; cited from earlier work.
Series [2] relates to glucose tolerance and insulin secretion. As to conditions: subjects with impaired glucose tolerance; DCI 1200 mg/day for 2 weeks; restored to normal levels; cited from earlier work.
A further series concerns insulin sensitivity. As to conditions: oral supplementation, insulin resistant individuals; cited from earlier work.
A short description of series [3]: Stability in concentrated aqueous acid (HCl). The format is physicochemical. As to conditions: about 5 N to 12 N HCl, about 65° C. to about 110° C.; conditions that destroy other sugars and demethylate D-Pinitol. The text has this: Therefore this single reaction provides D-chiro-inositol that is substantially free of other contaminating carbohydrates, thus eliminating the need for subsequent purification techniques.
One aspect of the invention involves the conversion of […] a concentrated acid. […] Thus a crude D-chiro-inositol composition comprising one or more components where at least 10% (w/w) of the mass is a D-chiro-inositol moiety is subject to concentrated acid in a solution of about 5 N to 12 N HCl at a temperature in the range of about 65° C. to about 110° C. for a period of time.

On to `OC1C(O)C(O)C(O)C(O)C1O` [DCI, D-chiro-inositol], for which the “ovulation, proportion of patients” value in series [1] is 86%. Further, in series [2], the glucose tolerance result is listed as “restored” and the insulin secretion entry is recorded as “restored”. Moreover, the insulin sensitivity entry in the series with insulin sensitivity is given as “improves insulin sensitivity”. The “stability under acidic conditions” value in series [3] is “stable”.
